This assay concerns Acinetobacter baumannii ATCC17978. The assay is described as follows: Antimicrobial susceptibility testing: 90% growth inhibitory concentration (IC90) determination, Iso-Sensitest broth. It counts as cell-based. Summed up:
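A. baumannii ATCC17978 grown in Iso-Sensitest broth across 10 compound concentrations at 35±2 °C.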

The mark [1] stands for this setting: 90% growth inhibitory concentration, Acinetobacter baumannii ATCC17978, Iso-Sensitest broth, OD 600 nm over 16 h, read-out: ATCC17978 IC90.
Setting [2] is: Acinetobacter baumannii, ATCC17978, 16 h, read-out: ATCC17978 IC90, 90% growth inhibitory concentration, Acinetobacter baumannii ATCC17978, Iso-Sensitest broth, OD 600 nm over 16 h.

Structures can show the parent of a compound that is named as a salt. Where two headings read alike, the source gives them in different places.

On to `Cc1cc(Nc2nccn3c(-c4ccc(O[C@@H](C)C#N)c(F)c4F)cnc23)ccc1C(=O)N1CCN(C(=O)[C@@H]2C[C@](C)(O)CN2)CC1` [Example 459, (2S)-2-[2,3-difluoro-4-[8-[4-[4-[(2S,4S)-4-hydroxy-4-methylpyrrolidine-2-carbonyl]piperazine-1-carbonyl]-3-methylanilino]imidazo[1,2-a]pyrazin-3-yl]phenoxy]propanenitrile; for-mic acid], for which the IC90 under setting [1] worked out at 82 nM.

Regarding `COc1ccc(-c2cnc3c(Nc4ccc(C(=O)N5CCC(CNC(C)=O)CC5)c(C)c4)nccn23)cc1` [Example 103, N-((1-(4-((3-(4-methoxyphenyl)imidazo[1,2-a]pyrazin-8-yl)amino)-2-methylbenzoyl)piperidin-4-yl)methyl)acetamide], under setting [1], the IC90 was determined as 150 nM.

In the case of `CN1CCN(C(=O)c2ccc(Nc3nccn4c(-c5ccc(OC(F)F)cc5)cnc34)cc2C(F)(F)F)CC1` [Example 385, [4-[[3-[4-(difluoromethoxy)phenyl]imi-dazo[1,2-a]pyrazin-8-yl]amino]-2-(trifluoromethyl)phenyl]-(4-methylpiperazin-1-yl)methanone], under setting [2], the IC90 is 7400 nM.

As to `Cc1cc(Nc2nccn3c(-c4ccc(OCC#N)c(F)c4Cl)cnc23)ccc1C(=O)N1CCC(C(=O)N2CCNC[C@@H]2CO)CC1` [Example 207, 2-[3-chloro-2-fluoro-4-[8-[4-[4-[(2R)-2-(hydroxymethyl)piperazine-1-carbonyl]piperidine-1-carbonyl]-3-methyl-anilino]imidazo[1,2-a]pyrazin-3-yl]phenoxy] acetonitrile], the IC90 under setting [1] amounted to 170 nM.

Regarding `COc1ccc(-c2cnc3c(Nc4ccc(C(=O)N5CCN(C(=O)[C@H]6CCN6)CC5)c(C)c4)nccn23)cc1F` [Example 522, [4-[(2R)-azetidine-2-carbonyl]piperazin-1-yl]-[4-[[3-(3-fluoro-4-methoxyphenyl)imidazo[1,2-a]pyrazin-8-yl]amino]-2-methylphenyl]methanone; hy-drochloride], the IC90 under setting [1] worked out at 370 nM.

Consider `Cc1cc(Nc2nccn3c(-c4ccc(OC(F)F)cc4)cnc23)ccc1C(=O)N1CCN(CC(=O)N2CCCC2)CC1` [Example 377, 2-[4-[4-[[3-[4-(difluoromethoxy)phenyl]imi-dazo[1,2-a]pyrazin-8-yl]amino]-2-methylbenzoyl]piperazin-1-yl]-1-pyrrolidin-1-ylethanone], for which the IC90 under setting [2] amounted to 2300 nM.

For `COc1ccc(-c2cnc3c(Nc4ccc(C(=O)N5CCN(C(=O)NC[C@@H](C)N)CC5)c(C)c4)nccn23)c(Cl)c1F` [Example 155, N-[(2R)-2-aminopropyl]-4-[4-[[3-(2-chloro-3-fluoro-4-methoxy-phenyl)imidazo[1,2-a]pyrazin-8-yl]amino]-2-methyl-benzoyl]piperazine-1-carboxamide formate], under setting [1], the IC90 turned out to be 150 nM.

On to `COc1ccc(-c2cnc3c(Nc4ccc(C(=O)N5CCC(C(=O)N6CCNC(C(=O)O)C6)CC5)c(C)c4)nccn23)cc1F` (stereo not drawn) [Example 48, 4-[1-[4-[[3-(3-fluoro-4-methoxyphenyl)imidazo[1,2-a]pyrazin-8-yl]amino]-2-methylbenzoyl]piperidine-4-carbonyl]piperazine-2-carboxylic acid;hydrochloride], for which, under setting [1], the IC90 was found to be 930 nM.

Take `Cc1cc(Nc2nccn3c(-c4ccc(OC(F)F)cc4)cnc23)ccc1C(=O)N1CCC(C(=O)N2CCNCC2CO)CC1` (stereo not drawn) [Example 181, [4-[[3-[4-(difluoromethoxy)phenyl]imidazo[1,2-a]pyrazin-8-yl]amino]-2-methyl-phenyl]-[4-[2-(hydroxymethyl)piperazine-1-carbonyl]-1-piperidyl]methanone hydrochloride]: under setting [1], the IC90 is 130 nM.

With `Cc1cc(Nc2nccn3c(-c4ccc(OC(F)F)cc4)cnc23)ccc1C(=O)N1CCN(C(=O)CNC(=N)N)CC1` [Example 316, 1-[2-[4-[4-[[3-[4-(difluoromethoxy)phenyl]imi-dazo[1,2-a]pyrazin-8-yl]amino]-2-methylbenzoyl]piperazin-1-yl]-2-oxoethyl]guanidine; formic acid], the IC90 under setting [2] came out at 240 nM.

Take `Cc1cc(Nc2nccn3c(-c4ccc(OC(F)F)cc4)cnc23)ccc1C(=O)N1CCN(C(=O)C2(F)CCNCC2)CC1` [Example 324, [4-[[3-[4-(difluoromethoxy)phenyl]imi-dazo[1,2-a]pyrazin-8-yl]amino]-2-methylphenyl]-[4-(4-fluoropiperidine-4-carbonyl)piperazin-1-yl]methanone]: under setting [2], the IC90 was 330 nM.

Consider `Cc1cc(Nc2nccn3c(-c4ccc(OC(F)F)cc4)cnc23)ccc1C(=O)N1CCN(C(=O)[C@H]2C[C@@H](N)C2)CC1` [Example 249, [4-(3-aminocyclobutanecarbonyl)piperazin-1-yl]-[4-[[3-[4-(difluoromethoxy)phenyl]imidazo[1,2-a]pyrazin-8-yl]amino]-2-methyl-phenyl]methanone hydrochloride], for which the IC90 under setting [2] worked out at 180 nM.

As to `COc1ccc(-c2cnc3c(Nc4ccc(C(=O)N5CCC(C(=O)N6CCN[C@@H](CO)C6)CC5)c(C)c4)nccn23)c(F)c1F` [Example 544, [4-[[3-(2,3-difluoro-4-methoxyphenyl)imidazo[1,2-a]pyrazin-8-yl]amino]-2-methylphenyl]-[4-[(3R)-3-(hydroxymethyl)piperazine-1-carbonyl]piperidin-1-yl]methanone; formic acid], the IC90 under setting [2] is 100 nM.

As for `CCc1cc(Nc2nccn3c(-c4ccc(OCC#N)c(F)c4F)cnc23)ccc1C(=O)N1CCN(C(=O)[C@H]2CCNC[C@H]2O)CC1` (racemic) [Example 199, 2-[4-[8-[3-ethyl-4-[4-[rac-(3S,4S)-3-hydroxypiperidine-4-carbonyl]piperazine-1-carbonyl]anilino]imidazo[1,2-a]pyrazin-3-yl]-2,3-difluoro-phenoxy]acetonitrile formate], the IC90 under setting [1] was 180 nM.

Consider `COc1ccc(-c2cnc3c(Nc4ccc(C(=O)N5CCN(C(=O)N[C@H](C)CN)CC5)c(C)c4)nccn23)c(F)c1F` [Example 148, N-[(1R)-2-amino-1-methyl-ethyl]-4-[4-[[3-(2,3-difluoro-4-methoxy-phenyl)imidazo[1,2-a]pyrazin-8-yl]amino]-2-methyl-benzoyl]piperazine-1-carboxamide hydrochloride], for which the IC90 under setting [1] amounted to 210 nM.

Regarding `COc1ccc(-c2cnc3c(Nc4ccc(C(=O)N5CCC(C(=O)N(C)C[C@H](O)[C@@H](O)[C@H](O)[C@H](O)CO)CC5)c(C)c4)nccn23)cc1F` [Example 432, 1-[4-[[3-(3-fluoro-4-methoxyphenyl)imidazo[1,2-a]pyrazin-8-yl]amino]-2-methylbenzoyl]-N-methyl-N-[(2S,3R,4R,5R)-2,3,4,5,6-pentahydroxyhexyl]piperidine-4-carboxamide], under setting [1], the IC90 came out at 1500 nM.

With `Cc1cc(Nc2nccn3c(-c4ccc(OC(C)C#N)c(F)c4F)cnc23)ccc1C(=O)N1CCN(CCN(C)C)CC1` (stereo not drawn) [Example 238, 2-[4-[8-[4-[4-[2-(dimethylamino)ethyl]piperazine-1-carbonyl]-3-methyl-anilino]imidazo[1,2-a]pyrazin-3-yl]-2,3-difluoro-phenoxy]propanenitrile; 2,2,2-trifluoroacetic acid], the IC90 under setting [1] was determined as 210 nM.

For `COc1ccc(-c2cnc3c(Nc4ccc(C(=O)N5CCC(C(=O)N6CCN[C@@H](C(=O)O)C6)CC5)c(C)c4)nccn23)cc1F` [Example 558, (R)-4-(1-(4-((3-(3-fluoro-4-methoxyphenyl)imidazo[1,2-a]pyrazin-8-yl)amino)-2-methylbenzoyl)piperidine-4-carbonyl)piperazine-2-carboxylic acid hydrochloride], under setting [1], the IC90 was determined as 922 nM.
